Results: US20130236656A1, “SELF-REDUCED METAL COMPLEX INKS SOLUBLE IN POLAR PROTIC SOLVENTS AND IMPROVED CURING METHODS” (LIQUID X PRINTED METALS, INC., priority 2012, published 2013)

Conditions: isolated solid

CC(C)C(=O)[O-].NCCN.[Ag+] [ethylenediamine silver isobutyrate]
hygroscopicity (hydroscopic [sic]): hydroscopic
